In EPA's ToxValDB 9.5:
Structures can show the parent of a compound that is named as a salt.

Tested on: Rattus norvegicus
Settings: oral
[1] = subchronic, gavage, M, Sprague-Dawley, Clinical Observation: Soiled perigenital region + Body Weight Changes: Weight gain decrease + Food Consumption: decrease(week 1) + Blood …
[2] = subchronic, gavage, M, Sprague-Dawley, Hematology: RBC decrease, Hgb decrease, Ret increase + Blood Chemistry: Cho increase, PL increase + Absolute Organ Weight: Kidney increase…
[3] = subchronic, gavage, M, Sprague-Dawley, Clinical Observation: Salivation PtosisEmaciation Locomotor activity decrease + Body Weight Changes: Gain decrease + Blood Chemistry: TP …
[4] = short-term, duration: 28 days, gavage, F, Sprague-Dawley, Urinalysis: Volume increasep H decrease + Hematology: APTT increase, PT increase + Blood Chemistry: TP increase, Glu decrease, Cho increase…
[5] = short-term, duration: 28 days, gavage, M, Sprague-Dawley, Urinalysis: Volume increasep H decrease + Hematology: APTT increase, PT increase + Blood Chemistry: TP increase, Glu decrease, Cho increase…
[6] = subchronic, gavage, M, Sprague-Dawley, Absolute Organ Weight: Liver increase + Relative Organ Weight: Liver increase + Necropsy: Stomach-Thickening of limiting ledge + …
[7] = short-term, duration: 28 days, gavage, F, Sprague-Dawley, Clinical Observation: Salivation Soft feces Diarrhea Soiled perigenital fur + Body Weight Changes: decrease, Gain decrease + Urinalysis: pH …
[8] = short-term, duration: 28 days, gavage, M, Sprague-Dawley, Clinical Observation: Salivation Soft feces Diarrhea Soiled perigenital fur + Body Weight Changes: decrease, Gain decrease + Urinalysis: pH …

## Cc1cccc(Cl)c1Cl [Benzene, 1,2-dichloro-3-methyl-]
[1]
  NOAEL: 200 mg/kg-day
  NOEL: < 50 mg/kg-day

## Sc1ccccc1 [Benzenethiol]
[2]
  LOAEL: 0.4 mg/kg-day
  LOEL: 0.4 mg/kg-day
  NOAEL: < 0.4 mg/kg-day
  NOEL: < 0.4 mg/kg-day

## N#Cc1cccc([N+](=O)[O-])c1 [Benzonitrile, 3-nitro-]
short-term, duration: 28 days, gavage, M/F, Deaths + Clinical Observation: Paralytic gait Piloerection Reddish tears + Body Weight Changes: Body weight gain decrease + Hematology: WBC…
  NOEL: < 0.5 mg/kg-day

## ClC(Cl)(Cl)c1ccccc1 [Benzotrichloride]
short-term, duration: 28 days, diet, M/F, CD, Blood Chemistry: SDH(sorbitol dehydrogenase) increase, LDH increase + Histopathology: Liver: Anisokaryosis associated with pyknosis, …
  NOAEL: < 0.5 ppm

## CCCCN(CCCC)C(=S)[S-].CCCCN(CCCC)C(=S)[S-].[Cu+2] [Bis(N,N-dibutyldithiocarbamato)copper]
subchronic, gavage, M, Sprague-Dawley, Urinalysis: Protein increase, Cl increase + Blood Chemistry: Cho increase + Relative Organ Weight: Adrenal decrease
  NOEL: < 40 mg/kg-day

## S=C(SSSSC(=S)N1CCCCC1)N1CCCCC1 [Bis(piperidinothiocarbonyl) tetrasulphide]
short-term, duration: 28 days, gavage, F, Sprague-Dawley, Histopathology: Kidney-Hyaline droplet, proximal tubular epithelium Kidney-Eosinophilic body, proximal tubular epithelium
  NOEL: 1000 mg/kg-day
short-term, duration: 28 days, gavage, M, Sprague-Dawley, Histopathology: Kidney-Hyaline droplet, proximal tubular epithelium Kidney-Eosinophilic body, proximal tubular epithelium
  NOEL: 100 mg/kg-day
subchronic, gavage, M, Sprague-Dawley, Clinical Observation: Light brown stool + Body Weight Changes: decrease, R
  NOEL: 1000 mg/kg-day

## O=C1C=CC(=O)N1c1ccc(Cc2ccc(N3C(=O)C=CC3=O)cc2)cc1 [Bismaleimide]
subchronic, gavage, Sprague-Dawley
  NOEL: 1000 mg/kg-day

## CC(O)COc1ccc(C(C)(C)c2ccc(OCC(C)O)cc2)cc1 (stereo not drawn) [Bisphenol A bis(polypropylene glycol) ether]
[3]
  LOAEL: 120 mg/kg-day
  LOEL: 120 mg/kg-day
  NOAEL: 30 mg/kg-day
  NOEL: 30 mg/kg-day

## O=c1[nH]c(=O)n([C@@H]2O[C@H](CO)[C@@H](O)[C@@H]2O)cc1/C=C/Br [Bravavir]
chronic, duration: 182 days, gavage, M/F, Wistar, Deaths + Clinical Observation: Soiled eyelid Smudge, perioral, nose Flush, ear auricle Polyuria Soiled perineal region Decrease or loss of …
  NOEL: 80 mg/kg-day

## CCCC=NO [Butyraldehyde oxime]
subchronic, gavage, M/F, Fischer 344, Deaths + Body Weight Changes: decrease + Urinalysis: Thiocyanate (I1/4mol/24 hr) increase, Thiocyanate/creatinine ratio increase, Creatinine…
  NOEL: < 25 mg/kg-day

## c1ccc2c(c1)[nH]c1ccccc12 [Carbazole]
subchronic, gavage, M, Sprague-Dawley, Body Weight Changes: decrease + Blood Chemistry: T-Cho increase, PL increase, Glu decrease + Absolute Organ Weight: Liver increase, Kidney …
  NOEL: 25 mg/kg-day

## CC(Cl)CCCC(Cl)CCCC(Cl)CCCC(Cl)CCCC(Cl)CCCC(Cl)CCCl (stereo not drawn) [Chloro C22-26 alkanes]
subchronic, duration: 13 weeks, gavage, F, Fischer 344, Histopathology: Liver-Granuloma inflammation
  NOEL: < 235 mg/kg-day

## N#CN=C(N)N [Cyanoguanidine]
subchronic, duration: 44 days, gavage, M, CD(SD)
  NOAEL: 1000 mg/kg-day

## C1CCC2CCCCC2C1 (stereo not drawn) [Decalin]
[4]
  LOEL: 200 mg/kg-day
  NOEL: 40 mg/kg-day
[5]
  LOEL: 40 mg/kg-day
  NOEL: < 40 mg/kg-day

## CCOC(=O)/C=C\C(=O)OCC [Diethyl maleate]
[6]
  NOAEL: 20 mg/kg-day
  NOEL: 20 mg/kg-day

## CC(O)CNCC(C)O (stereo not drawn) [Diisopropanolamine]
subchronic, duration: 90 days, drinking water, F, Fischer 344, Water Consumption: decrease + Urinalysis: Volume decrease, Specific gravity increase + Absolute Organ Weight: Kidney increase500 + Relative…
  NOAEL: 500 mg/kg-day
subchronic, duration: 90 days, drinking water, M/F, Fischer 344, Water Consumption: decrease + Urinalysis: SG increase, Volume decrease + Absolute Organ Weight: Kidney increase + Relative Organ Weight: …
  NOAEL: 100 mg/kg-day
subchronic, duration: 90 days, drinking water, M, Fischer 344, Water Consumption: decrease + Urinalysis: Volume decrease, Specific gravity increase + Absolute Organ Weight: Kidney increase500 + Relative…
  NOAEL: 100 mg/kg-day

## CC(=O)OC1CC(C)OC(C)O1 (stereo not drawn) [Dimethoxane]
subchronic, duration: 13 weeks, gavage, M/F, Fischer 344, Body Weight Changes: decrease + Relative Organ Weight: Kidney increase, Brain increase, Lung increase + Histopathology: Stomach/forestomach…
  NOEL: 31 mg/kg-day

## CO[Si](C)(C)OC [Dimethoxydimethylsilane]
short-term, duration: 29 days, gavage, M/F, Sprague-Dawley, Deaths + Clinical Observation: Soiling of chin and urogenital area Soiling of muzzle + Absolute Organ Weight: Adrenal decrease, Liver …
  NOAEL: 250 mg/kg-day

## COC(=O)c1cccc(C(=O)OC)c1 [Dimethyl isophthalate]
subchronic, gavage, M, Sprague-Dawley, Clinical Observation: Salivation + Urinalysis: Volume increase, Na increase
  NOAEL: 250 mg/kg-day

## CCCCCCCCCCCCCCCCCC[N+](C)(C)CCCCCCCCCCCCCCCCCC.[Cl-] [Dimethyldioctadecylammonium chloride]
short-term, duration: 28 days, gavage, M/F, Wistar, Body Weight Changes: Weight gain decrease + Hematology: WBC increase + Histopathology: Adrenal: Necrosis, cortex Adrenal: Granulocytes …
  NOAEL: 100 mg/kg-day

## CCCCCCC[CH2][Sn]([CH2]CCCCCCC)([S]CC(=O)OCCCCCC(C)C)[S]CC(=O)OCCCCCC(C)C [Dioctyltin-S,S'-bis(isooctylmercaptoacetate)]
subchronic, duration: 13 weeks, diet, Sprague-Dawley
  NOAEL: 14.4 mg/kg-day

## C=C[Si](C)(C)O[Si](C)(C)C=C [Divinyltetramethyldisiloxane]
short-term, duration: 28 days, gavage, M, CD(SD), Clinical Observation: Clear material around the mouth Red material around the mouth + Body Weight Changes: Mean body weight decrease, Weight…
  NOAEL: < 50 mg/kg-day

## COC1COC(OC2COC(OC3COC(OC4COC(OC)C(OS(=O)(=O)[O-])C4OS(=O)(=O)[O-])C(OC4OC(C(=O)[O-])C(OC)C(OS(=O)(=O)[O-])C4OS(=O)(=O)[O-])C3OS(=O)(=O)[O-])C(OS(=O)(=O)[O-])C2OS(=O)(=O)[O-])C(OS(=O)(=O)[O-])C1OS(=O)(=O)[O-].[Na+].[Na+].[Na+].[Na+].[Na+].[Na+].[Na+].[Na+].[Na+].[Na+] (stereo not drawn) [Elmiron]
Repeat dose other, gavage, M/F, Fischer 344, Hematology: Hct decrease, Hgb decrease, RBC decrease, Plt increase, WBC increase + Absolute Organ Weight: Liver increase, Spleen increase, …
  NOEL: < 63 mg/kg-day

## Cc1cc(O)c2c(c1)C(=O)c1cc(O)cc(O)c1C2=O [Emodin]
chronic, duration: 14 weeks, diet, M/F, Fischer 344, Clinical Observation: Body color change Diarrhea + Body Weight Changes: decrease. >2500 + Food Consumption: decrease + Hematology: Hct …
  NOEL: < 24.4 mg/kg-day

## CCOC(=O)CC#N [Ethyl cyanoacetate]
subchronic, duration: 90 days, gavage, M/F, Wistar, Urinalysis: Volume increase + Hematology: WBC decrease, RBC decrease, HGB decrease, HTC decrease + Histopathology: Liver: Inflammation, …
  NOAEL: 100 mg/kg-day

## CC(O)(P(=O)(O)O)P(=O)(O)O [Etidronic acid]
subchronic, duration: 90 days, diet, M/F, Body Weight Changes: decrease + Food Consumption: decrease + Hematology: RBC increase, HGB decrease, HCT decrease + Absolute Organ Weight: …
  NOAEL: > 2880 mg/kg-day

## CC(C)(C)c1cc(CCC(=O)O)cc(C(C)(C)C)c1O [Fenozan]
subchronic, duration: 90 days, gavage, M/F, Blood Chemistry: GPT increase, TP increase, GLB increase, T-CHO increase + Organ Weight: Liver increase + Histopathology: Liver - …
  NOEL: 3 mg/kg-day

## C[C@@H](O)[C@H]1C(=O)N2C(C(=O)O)=C([C@H]3CCCO3)S[C@H]12 [Fropenem]
chronic, duration: 182 days, gavage, M/F, CD, Clinical Observation: Loose stool Soiled perineal region + Body Weight Changes: decrease + Food Consumption: decrease + Water Consumption: …
  NOAEL: 100 mg/kg-day

## Cc1ccc(C)c(OCCCC(C)(C)C(=O)O)c1 [Gemfibrozil]
chronic, duration: 91 days, diet, F, CD, Body Weight Changes: Body weight gain decrease + Hematology: RBC decrease, HCT decrease, HGB decrease, Plt increase, RET increase + Blood …
  NOAEL: 30 mg/kg-day
chronic, duration: 91 days, diet, M, CD, Body Weight Changes: Body weight gain decrease + Hematology: RBC decrease, HCT decrease, HGB decrease, Plt increase, RET increase + Blood …
  NOAEL: < 30 mg/kg-day

## [In] [Indium]
short-term, duration: 28 days, gavage, Crj:CD
  NOEL: 1000 mg/kg-day

## CC(C)c1cccc2ccccc12 [Isopropylnaphthalene]
[7]
  LOEL: 250 mg/kg-day
  NOEL: 50 mg/kg-day
[8]
  LOEL: 250 mg/kg-day
  NOEL: 50 mg/kg-day

## OC[C@@H](O)[C@@H](O[C@@H]1O[C@H](CO)[C@H](O)[C@H](O)[C@H]1O)[C@H](O)[C@@H](O)CO [Lactitol]
subchronic, gavage, M/F, SLC:SD, Clinical Observation: Loose stool, Diarrhea Soiled fur, Salivation Abdominal distention + Body Weight Changes: decrease + Food Consumption: …
  NOEL: < 625 mg/kg-day

## C=CC(C)(O)CCC=C(C)C (stereo not drawn) [Linalool]
short-term, duration: 28 days, gavage, M/F, CD/BR, Deaths + Blood Chemistry: TP increase, Alb increase, Ca increase, Glu decrease + Absolute Organ Weight: Liver increase, Kidney increase + …
  NOAEL: 160 mg/kg-day

## O=C/C=C/[O-].[Na+] [Malonaldehyde, sodium salt]
subchronic, duration: 13 weeks, gavage, M/F, Fischer 344, Deaths + Clinical Observation: Rough hair coats Red exudate around the eyes Impairment of hindleg motor ability + Body Weight Changes: …
  NOEL: 30 mg/kg-day

## COC(=O)CCS [Methyl 3-mercaptopropionate]
subchronic, gavage, M, Wistar, Clinical Observation: Pushed their heads through the bedding + Relative Organ Weight: Liver increase + Histopathology: Stomach: Hyperplasia…
  NOAEL: 100 mg/kg-day

## COC(N)=O [Methyl carbamate]
subchronic, duration: 13 weeks, gavage, M/F, Fischer 344, Deaths + Body Weight Changes: decrease + Absolute Organ Weight: Liver decrease + Relative Organ Weight: Liver decrease + Histopathology: …
  NOEL: 50 mg/kg-day

## C[C@](N)(Cc1ccc(O)c(O)c1)C(=O)O.C[C@](N)(Cc1ccc(O)c(O)c1)C(=O)O.O.O.O [Methyldopa sesquihydrate]
subchronic, duration: 13 weeks, diet, M/F, Fischer 344, Deaths + Body Weight Changes: decrease + Food Consumption: decrease + Absolute Organ Weight: Liver decrease + Relative Organ Weight: Liver …
  NOEL: < 298 mg/kg-day

## CN(C)CCCCCCN(C)C [N,N,N',N'-Tetramethyl-1,6-hexanediamine]
subchronic, gavage, M, Sprague-Dawley, Histopathology: Lungs/ bronchus a"Vacuolation, bronchial epithelium Epididymis- Decrease, sperm
  NOEL: 10 mg/kg-day

## C=CC(=O)N(C)C [N,N-Dimethylacrylamide]
short-term, duration: 28 days, gavage, M/F, Sprague-Dawley, Functional Observational Battery: Urination increase, Rearing decrease, Unkempt fur Motor activity decrease + Body Weight Changes: decrease…
  NOEL: 20 mg/kg-day
